Results reported in patent publication US20230085307A1, “PYRIDAZINONE COMPOUND AND HERBICIDE” (NISSAN CHEMICAL CORPORATION, priority 2019, published 2023).

Tests used:
late watergrass = experiment: Test Example 1: herbicidal activity, application before weed generation under submerged conditions (Table 16, symbol A); type: in vivo, late watergrass (Echinochloa oryzicola); conditions: 320 g/ha applied herbicide
Outline: (§1)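 Emulsion formulation, water-diluted to set dose, was put onto the flooded surface (4 cm depth, alluvial soil) the same day weeds were sown and 2.5-leaf rice transplanted. After 3 weeks at 25-30 °C under glass, each species was rated 0 (≤5% kill) to 5 (≥90% kill).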

windgrass = experiment: Test Example 5: herbicidal effect by foliage application, plastic box (Table 20, symbol L); type: in vivo, windgrass (Apera spica-venti); conditions: foliage application, 320 g/ha, three weeks after application
Outline: (§2)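 Plants sown in sterilized diluvial soil and grown 14 days in a greenhouse at 25° C to 30° C, then sprayed on the foliage with the compound's emulsion diluted in water to a predetermined herbicide amount. Injury to weeds and crops scored three weeks after application on a visual rating scale.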

blackgrass = experiment: Test Example 5: herbicidal effect by foliage application, plastic box (Table 20, symbol J); type: in vivo, blackgrass (Alopecurus myosuroides); conditions: foliage application, 320 g/ha, three weeks after application
Outline: as §2

barnyard grass [1] = experiment: Test Example 3: herbicidal effect by foliage application, Wagner pot (Table 18, symbol H); type: in vivo, barnyard grass (Echinochloa crus-galli); conditions: 320 g/ha
Outline: (§3)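 Plants were sown in alluvial soil held under 0.1–0.5 cm standing water and grown 14 days in a greenhouse at 25–30 °C. An emulsifiable formulation, water-diluted to the set dose, was then sprayed onto the foliage, and effects were scored three weeks later using previously defined criteria.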

southern crabgrass = experiment: Test Example 5: herbicidal effect by foliage application, plastic box (Table 20, symbol F); type: in vivo, southern crabgrass (Digitaria ciliaris); conditions: foliage application, 320 g/ha, three weeks after application
Outline: as §2

wild oat = experiment: Test Example 5: herbicidal effect by foliage application, plastic box (Table 20, symbol I); type: in vivo, wild oat (Avena fatua); conditions: foliage application, 320 g/ha, three weeks after application
Outline: as §2

false cleavers = experiment: Test Example 5: herbicidal effect by foliage application, plastic box (Table 20, symbol Q); type: in vivo, false cleavers (Galium spurium); conditions: foliage application, 320 g/ha, three weeks after application
Outline: as §2

chickweed = experiment: Test Example 5: herbicidal effect by foliage application, plastic box (Table 20, symbol P); type: in vivo, common chickweed (Stellaria media); conditions: foliage application, 320 g/ha, three weeks after application
Outline: as §2

rice flat sedge = experiment: Test Example 3: herbicidal effect by foliage application, Wagner pot (Table 18, symbol E); type: in vivo, rice flat sedge (Cyperus iria); conditions: 320 g/ha
Outline: as §3

velvetleaf = experiment: Test Example 5: herbicidal effect by foliage application, plastic box (Table 20, symbol M); type: in vivo, velvetleaf (Abutilon theophrasti); conditions: foliage application, 320 g/ha, three weeks after application
Outline: as §2

lambsquarters = experiment: Test Example 5: herbicidal effect by foliage application, plastic box (Table 20, symbol O); type: in vivo, lambsquarters (Chenopodium album); conditions: foliage application, 320 g/ha, three weeks after application
Outline: as §2

oval-leafed pondweed = experiment: Test Example 1: herbicidal activity, application before weed generation under submerged conditions (Table 16, symbol C); type: in vivo, oval-leafed pondweed (Monochoria vaginalis); conditions: 320 g/ha applied herbicide
Outline: as §1

persian speedwell = experiment: Test Example 5: herbicidal effect by foliage application, plastic box (Table 20, symbol R); type: in vivo, Persian speedwell (Veronica persica); conditions: foliage application, 320 g/ha, three weeks after application
Outline: as §2

Italian ryegrass = experiment: Test Example 5: herbicidal effect by foliage application, plastic box (Table 20, symbol K); type: in vivo, Italian ryegrass (Lolium multiflorum); conditions: foliage application, 320 g/ha, three weeks after application
Outline: as §2

green foxtail = experiment: Test Example 5: herbicidal effect by foliage application, plastic box (Table 20, symbol G); type: in vivo, green foxtail (Setaria viridis); conditions: foliage application, 320 g/ha, three weeks after application
Outline: as §2

Chinese sprangletop = experiment: Test Example 3: herbicidal effect by foliage application, Wagner pot (Table 18, symbol D); type: in vivo, chinese sprangletop (Leptochloa chinensis); conditions: 320 g/ha
Outline: as §3

barnyard grass [2] = experiment: Test Example 5: herbicidal effect by foliage application, plastic box (Table 20, symbol H); type: in vivo, barnyard grass (Echinochloa crus-galli); conditions: foliage application, 320 g/ha, three weeks after application
Outline: as §2

Japanese bulrush = experiment: Test Example 1: herbicidal activity, application before weed generation under submerged conditions (Table 16, symbol B); type: in vivo, Japanese bulrush (Schoenoplectus juncoides); conditions: 320 g/ha applied herbicide
Outline: as §1

COc1ccc(-c2sc3ccccc3c2-c2c(O)c(C)nn(C)c2=O)c(OC)c1 [1-070]
Herbicidal effect on A: late watergrass (grade 0-5) (late watergrass): 3 (Herbicidal rate of 40% or more and less than 70%)
herbicidal effect grade, L: windgrass (windgrass): 3 (Herbicidal rate of 40% or more and less than 70%)
herbicidal effect grade, J: blackgrass (blackgrass): 0 (Herbicidal rate of 5% or less (almost no effect))
herbicidal effect on H (barnyard grass), rating 0-5 (barnyard grass [1]): 1 (Herbicidal rate of 5% or more and less than 20%)
herbicidal effect grade, F: southern crabgrass (southern crabgrass): 3 (Herbicidal rate of 40% or more and less than 70%)
herbicidal effect grade, I: wild oat (wild oat): 1 (Herbicidal rate of 5% or more and less than 20%)
herbicidal effect grade, Q: false cleavers (false cleavers): 2 (Herbicidal rate of 20% or more and less than 40%)
herbicidal effect grade, P: chickweed (chickweed): 5 (Herbicidal rate of 90% or more (almost completely withered))
herbicidal effect on E (rice flat sedge), rating 0-5 (rice flat sedge): 3 (Herbicidal rate of 40% or more and less than 70%)
herbicidal effect grade, M: velvetleaf (velvetleaf): 2 (Herbicidal rate of 20% or more and less than 40%)
herbicidal effect grade, O: lambsquarters (lambsquarters): 0 (Herbicidal rate of 5% or less (almost no effect))
Herbicidal effect on C: oval-leafed pondweed (grade 0-5) (oval-leafed pondweed): 1 (Herbicidal rate of 5% or more and less than 20%)
herbicidal effect grade, R: persian speedwell (persian speedwell): 4 (Herbicidal rate of 70% or more and less than 90%)
herbicidal effect grade, K: Italian ryegrass (Italian ryegrass): 1 (Herbicidal rate of 5% or more and less than 20%)
herbicidal effect grade, G: green foxtail (green foxtail): 3 (Herbicidal rate of 40% or more and less than 70%)
herbicidal effect on D (Chinese sprangletop), rating 0-5 (Chinese sprangletop): 0 (Herbicidal rate of 5% or less (almost no effect))
herbicidal effect grade, H: barnyard grass (barnyard grass [2]): 0 (Herbicidal rate of 5% or less (almost no effect))
Herbicidal effect on B: Japanese bulrush (grade 0-5) (Japanese bulrush): 3 (Herbicidal rate of 40% or more and less than 70%)
